{"source": "patent US5204345A", "about": "“6-epifumagillols and the pharmaceutical use thereof” (Takeda Chemical Industries, Ltd., priority 1989, dated 1993)", "key": {"[1]": {"tested_on": "human umbilical vein endothelial cells", "assay": "inhibition of human umbilical vein endothelial cell growth (MTT)", "format": "cell-based", "details": "120 h, rFGF 2 ng/ml, 5-day culture, MTT OD590, read-out: IC50, inhibiting endothelial cell growth", "protocol": "Evaluation of inhibition of human umbilical vein endothelial cell growth\nHuman umbilical vein endothelial cells were isolated by perfusion of an umbilical vein with a trypsin-containing medium. The cells were cultured in sequence in GIT medium (Daigo Eiyo Kagaku) supplemented with 2.5% fetal bovine serum and 2.0 ng/ml or recombinant human fibroblast growth factor (hereinafter simply referred to rFGF, prepared at Biotechnology Research Laboratories, Takeda Chemical Industries, Ltd.).\nA suspension of human vein endothelial cells at the cell density of 2×10^3 (100 μl) was seeded on 96-well incubation plate (Nunc, 1-67008), and incubation was conducted in a gas-controlled thermostat vessel. The following day, 100 μl of medium containing rFGF (2 ng/ml at the final concentration) and samples of various concentrations were added. […] After 5-day culture, the culture solution containing samples was removed by suction, 100 μl of 1 mg/ml of MTT solution [3-(4,5-dimethyl-2-thiazolyl)-2,5-diphenyl-2H-tetrazolium bromide was dissolved in the culture solution] was added and kept warm it about 40° C. for 4 hours. Then, 100 μl of a 10% SDS solution (aqueous solution of sodium dodecyl sulfate) was added, and the mixture was kept warming for 5-6 hours. The cells and MTT pigment were solubilized, and the OD590 value was measured using a spectrophotometer."}, "[2]": {"tested_on": "bFGF-induced angiogenesis", "assay": "rat cornea micropocket method, angiogenesis inhibitory activity", "format": "in vivo, rat (Sprague-Dawley)", "details": "number of rats with angiogenesis inhibitory activity relative to number tested; sample 20 ug pellet, bFGF 250 ng, 10 days", "protocol": "The object compounds (I) obtained in the Examples given below were evaluated for angiogenesis inhibitory activity by the rat cornea micropocket method. Method of Evaluation:\nEssentially the same method of Gimbrone et al. [J. National Cancer Institute, 52, 413-419 (1974)] was followed. Thus, adult male Sprague-Dawley rats (11 to 16 week old) were anesthetized with nembutal and locally anesthetized by instillation of xylocaine eyedrops onto the eyeball. The cornea was incised to a length of about 2 mm at about 2 mm inside from the corneal circumference by means of an injection needle, and a basic fibroblast growth factor (bFGF; bovine brain-derived, purified product; R & D Inc.) and a sustained release pellet containing the test sample were inserted side by side into the incision so that the bFGF pellet was located on the central side in the cornea. In the control group, the bFGF pellet and a sample-free pellet were inserted into the cornea. After 10 days, the cornea was observed under a stereoscopic microscope.\nThe sustained release pellets were prepared in the following manner. An ethylene-vinyl acetate copolymer (Takeda Chemical Industries, Ltd.) was dissolved in dichloromethane to a concentration of 8%. A 3 μl portion of the solution was air-dried on a glass dish, an aqueous solution of bFGF (250 ng) was then placed thereon and air-dried and, finally 3 μl of the above ethylene-vinyl acetate copolymer solution was placed further thereon and air-dried to give a sandwich sheet. This sandwich sheet was made round into a bFGF pellet. The test sample pellets were prepared by dissolving each sample in ethanol in a concentration of 20 ug/2 μl, mixing the solution with 6 μl of an ethylene-vinyl acetate copolymer solution, air-drying the mixed solution in a glass dish and making the thus-obtainedsheet round.\nIn the Table 1 above, the inhibitory rate means the number of rats on which angiogenesis inhibitory activity was observed relative to the number of rats tested."}, "[3]": {"tested_on": "spleen cells from BALB/c and C57BL/6 mice", "assay": "3H-thymidine uptake induced by the mixed lymphocyte reaction of spleen cells", "format": "cell-based, mouse (BALB/c and C57BL/6)", "details": "Mus musculus, in vitro"}, "[4]": {"tested_on": "T cell dependent immunoglobulin production", "assay": "antibody production induced by pokeweed mitogen (T cell dependent B cell mitogen)", "format": "cell-based", "details": "in vitro", "from_the_text": "(§1) The effects of compounds 5 and 8 on the antibody production induced by pokeweed mitogen, a T cell dependent B cell mitogen, and Epstein Barr virus, a T cell independent B cell mitogen, were examined."}, "[5]": {"tested_on": "T cell independent antibody production", "assay": "antibody production induced by Epstein Barr virus (T cell independent B cell mitogen)", "format": "cell-based", "details": "in vitro", "from_the_text": "as §1"}, "[6]": {"tested_on": "anti-bovine gamma globulin antibody titer", "assay": "anti-bovine gamma globulin antibody titer in immunized mice", "format": "in vivo, mouse (BALB/c)", "details": "for Anti-bovine gamma globulin antibody titer, suppression: 20 mg/kg i.p. every 2 days, sera 3 weeks after immunization, words; for Anti-bovine gamma globulin Ab titer: percentage against reference group injected with saline, compounds 5 and 8: 20 mg/kg i.p. every 2 days, 3 weeks", "protocol": "Anti-bovine gamma globulin antibody titer was assayed in sera obtained 3 weeks after the immunization."}, "[7]": {"tested_on": "germinal center formation and plasma cell induction in the spleen", "assay": "histological study in the spleen of mice immunized with sheep red blood cells", "format": "in vivo, mouse (BALB/c)", "details": "compounds 5 and 8: 100 mg/kg i.p. once a day for 4 days; day 6 after immunization; words"}, "thymus and spleen weight": {"assay": "thymus and spleen weight", "format": "in vivo, mouse (BALB/c)", "details": "for Spleen weight / Thymus weight: percentage against reference group injected with saline; for reduction of spleen weight: words", "description": "and spleen were represented as percentages against those of a reference\ngroup which were injected with saline."}, "[8]": {"details": "Lymphocyte, Table 3, read-out: Mixed lymphocyte reaction, concentration which showed 50% inhibition"}, "[9]": {"details": "mixed lymphocyte reaction, read-out: 50% inhibition of 3H-thymidine uptake, concentration"}, "[10]": {"details": "Table 3, read-out: T dependent Ab production, concentration which showed 50% inhibition"}, "[11]": {"details": "pokeweed mitogen, read-out: 50% suppression of T cell dependent immunoglobulin production, concentration"}, "[12]": {"details": "Epstein Barr virus, read-out: 50% suppression of T cell independent antibody production, concentration"}, "[13]": {"details": "Table 3, read-out: T independent Ab production, concentration which showed 50% inhibition"}}, "note": "Read-outs that look alike come from different tables or passages of the source.", "data": [{"smiles": "CO[C@@H]1[C@@H](OC(=O)N2CCOCC2)CC[C@]2(CO2)[C@H]1[C@@]1(C)O[C@@H]1CC=C(C)C", "note": "[Example 11, 6-O-morpholinocarbonyl-6-epifumagillol]", "values": [{"measurement": "IC50", "setting": "[1]", "result": 4.68, "unit": "ng/mL"}]}, {"smiles": "CO[C@@H]1[C@@H](OC(=O)CCC(=O)O)CC[C@]2(CO2)[C@H]1[C@@]1(C)O[C@@H]1CC=C(C)C", "note": "[Example 7, 6-O-(3-carboxypropionyl)-6-epifumagillol]", "values": [{"measurement": "Inhibitory Rate", "setting": "[2]", "result": "5/6"}, {"measurement": "IC50", "setting": "[1]", "result": 8.71, "unit": "ng/mL"}]}, {"smiles": "CO[C@@H]1[C@@H](OC(N)=O)CC[C@]2(CO2)[C@H]1[C@@]1(C)O[C@@H]1CC=C(C)C", "note": "[Example 9, 6-O-carbamoyl-6-epifumagillol]", "values": [{"measurement": "IC50", "setting": "[1]", "result": 0.1, "unit": "ng/mL"}]}, {"smiles": "CO[C@@H]1[C@@H](O)CC[C@]2(CO2)[C@H]1[C@@]1(C)O[C@@H]1CC=C(C)C", "note": "[Example 2, 6-epifumagillol]", "values": [{"measurement": "Inhibitory Rate", "setting": "[2]", "result": "3/7"}, {"measurement": "IC50", "setting": "[1]", "result": "< 0.08", "unit": "ng/mL"}]}, {"smiles": "CO[C@@H]1[C@@H](OC(=O)c2ccccc2)CC[C@]2(CO2)[C@H]1[C@@]1(C)O[C@@H]1CC=C(C)C", "note": "[Example 6, 6-O-benzoyl-6-epifumagillol]", "values": [{"measurement": "Inhibitory Rate", "setting": "[2]", "result": "6/6"}, {"measurement": "IC50", "setting": "[1]", "result": 2.05, "unit": "ng/mL"}]}, {"smiles": "CO[C@@H]1[C@@H](OC)CC[C@]2(CO2)[C@H]1[C@@]1(C)O[C@@H]1CC=C(C)C", "note": "[Example 3, 6-O-methyl-6-epifumagillol]", "values": [{"measurement": "IC50", "setting": "[1]", "result": 9.82, "unit": "ng/mL"}]}, {"smiles": "CO[C@@H]1[C@@H](OC(C)=O)CC[C@]2(CO2)[C@H]1[C@@]1(C)O[C@@H]1CC=C(C)C", "note": "[Example 5, 6-O-acetyl-6-epifumagillol]", "values": [{"measurement": "Inhibitory Rate", "setting": "[2]", "result": "4/8"}, {"measurement": "IC50", "setting": "[1]", "result": 1.91, "unit": "ng/mL"}, {"measurement": "IC50", "setting": "[3]; [8]", "result": 300, "unit": "nM"}, {"measurement": "IC50", "setting": "[3]; [9]", "result": 300, "unit": "nM"}, {"measurement": "IC50", "setting": "[4]; [10]", "result": 7000, "unit": "nM"}, {"measurement": "IC50", "setting": "[4]; [11]", "result": 7000, "unit": "nM"}, {"measurement": "IC50", "setting": "[5]; [12]", "result": 30, "unit": "nM"}, {"measurement": "IC50", "setting": "[5]; [13]", "result": 30, "unit": "nM"}, {"measurement": "Anti-bovine gamma globulin antibody titer, suppression", "setting": "[6]", "result": "significant suppression"}, {"measurement": "Anti-bovine gamma globulin Ab titer", "setting": "[6]", "result": 13, "unit": "%"}, {"measurement": "formation of germinal center in the spleen", "setting": "[7]", "result": "suppressed the formation of germinal center"}, {"measurement": "induction of plasma cells in the spleen", "setting": "[7]", "result": "suppressed"}, {"measurement": "Spleen weight", "setting": "thymus and spleen weight", "result": 57, "unit": "%"}, {"measurement": "Thymus weight", "setting": "thymus and spleen weight", "result": 105, "unit": "%"}, {"measurement": "reduction of spleen weight", "setting": "thymus and spleen weight", "result": "reduction of spleen weight was observed"}]}, {"smiles": "CO[C@@H]1[C@@H](OC=O)CC[C@]2(CO2)[C@H]1[C@@]1(C)O[C@@H]1CC=C(C)C", "note": "[Example 1, 6-O-formyl-6-epifumagillol]", "values": [{"measurement": "Inhibitory Rate", "setting": "[2]", "result": "3/7"}, {"measurement": "IC50", "setting": "[1]", "result": "< 0.08", "unit": "ng/mL"}]}, {"smiles": "CO[C@@H]1[C@@H](OC(=O)Oc2ccccc2)CC[C@]2(CO2)[C@H]1[C@@]1(C)O[C@@H]1CC=C(C)C", "note": "[Example 8, 6-O-phenoxycarbonyl-6-epifumagillol]", "values": [{"measurement": "Inhibitory Rate", "setting": "[2]", "result": "5/7"}, {"measurement": "IC50", "setting": "[1]", "result": 0.166, "unit": "ng/mL"}, {"measurement": "IC50", "setting": "[3]; [8]", "result": 400, "unit": "nM"}, {"measurement": "IC50", "setting": "[3]; [9]", "result": 10, "unit": "nM"}, {"measurement": "IC50", "setting": "[4]; [10]", "result": 4000, "unit": "nM"}, {"measurement": "IC50", "setting": "[4]; [11]", "result": 4000, "unit": "nM"}, {"measurement": "IC50", "setting": "[5]; [12]", "result": 1, "unit": "nM"}, {"measurement": "IC50", "setting": "[5]; [13]", "result": 1, "unit": "nM"}, {"measurement": "Anti-bovine gamma globulin antibody titer, suppression", "setting": "[6]", "result": "significant suppression"}, {"measurement": "Anti-bovine gamma globulin Ab titer", "setting": "[6]", "result": 9, "unit": "%"}, {"measurement": "formation of germinal center in the spleen", "setting": "[7]", "result": "suppressed the formation of germinal center"}, {"measurement": "induction of plasma cells in the spleen", "setting": "[7]", "result": "suppressed"}, {"measurement": "Spleen weight", "setting": "thymus and spleen weight", "result": 60, "unit": "%"}, {"measurement": "Thymus weight", "setting": "thymus and spleen weight", "result": 116, "unit": "%"}, {"measurement": "reduction of spleen weight", "setting": "thymus and spleen weight", "result": "reduction of spleen weight was observed"}]}, {"smiles": "CO[C@@H]1[C@@H](OS(C)(=O)=O)CC[C@]2(CO2)[C@H]1[C@@]1(C)O[C@@H]1CC=C(C)C", "note": "[Example 12, 6-O-methanesulfonyl-6-epifumagillol]", "values": [{"measurement": "Inhibitory Rate", "setting": "[2]", "result": "3/4"}, {"measurement": "IC50", "setting": "[1]", "result": 6.5, "unit": "ng/mL"}]}]}
